What is called IC50 is the concentration at which inhibition is half-maximal.

Like-named read-outs stand apart in the source and are kept apart here.

The source of these data is patent publication US5932623A, “Process for the production of fruit polyphenols from unripe rosaceae fruit” (The Nikka Whisky Distilling Co., Ltd.,, priority 1993, dated 1999).

The nature of assay [1]: Test method for antioxidative activity (peroxide formation from linolic acid, iron rhodanide method). The note with it: compound added at 2 μM/g (linolic acid); one week after addition; FIG. 4. How it is done: 5 ml of a base solution (ethanol containing 4% of linolic acid) was mixed with 4 ml of a phosphate buffer solution (pH=7.0) and 1 ml of a sample solution in a tightly stoppered test tube. The test tube was kept in a 50° C. thermostat under light shielding. Also kept under the same conditions were a test tube (control) containing ethanol in place of linolic acid and a test tube (blank) containing the sample solvent in place of the sample.
During the storage period, the reaction mixture was sampled with the lapse of time to quantitatively determine the amount of peroxide formed by the isothiocyanate method (the iron rhodanide method).

In assay [2] the target is T1, GTase (glucosyltransferase) of S. sobrinus (Streptococcus downei, UniProt P27470).
T1 construct: Centrifugation was conducted to remove bacterial cells and obtain a supernatant; made in house; host or cells: S. sobrinus culture supernatant (native secreted enzyme, ammonium sulfate and hydroxyapatite purified)
Kind of assay: Test for GTase-inhibiting activity (insoluble glucan formation, turbidity at 550 nm). The format is biochemical, Streptococcus sobrinus ATCC 33478. The following applies: for GTase-inhibiting activity (in words): FIG. 17 and 18. How it is done:
S. sobrinus was cultured in a TTY medium [Agric. Biol. Chem., 54 (11), pp. 2925-2929, 1990] at 37° C. for 18 hours. Centrifugation was conducted to remove bacterial cells and obtain a supernatant. To the supernatant was added ammonium sulfate to 50% saturation. Then, centrifugation was conducted to recover the resulting precipitate. The precipitate was redissolved in a 0.05 M phosphate buffer solution (pH 6.5). The resulting solution was dialyzed with the same buffer solution. The GTase in the dialyzate was purified and removed by hydroxyapatite chromatography. The GTase (capable of forming insoluble glucan) was eluted with an about 0.4 M phosphate buffer solution. The GTase-containing elute was used for the following test.
A purified GTase solution and a sample solution were added to 1 ml of a substrate solution [a 0.1 M phosphate buffer solution (pH 6.5) containing 2% of sucrose, 0.1% of sodium azide and 40 μM of dextran T10]. Water was added for dilution to make the total volume 2 ml. The resulting solution was subjected to a reaction at 37° C. for 18 hours. The amount of insoluble glucan formed by the reaction was measured as a turbidity expressed by an absorbance at 550 nm, and the formation ratio (%) of insoluble glucan was calculated using the following formula: […]
formation ratio (%) of insoluble glucan=(SS-SB).div.(CS-CB)×100 wherein SS: absorbance of sample, SB: absorbance of blank for sample (the blank contained no enzyme), CS: absorbance of control (containing no sample), and CB: absorbance of blank for control (the blank contained no sample and no enzyme).

Assay [3] concerns the target T2, ACE (angiotensin I converting enzyme) (Homo sapiens, UniProt P12821).
T2 construct: purchased
Kind of assay: Test for ACE-inhibiting activity (commercial ACE, Bz-Gly-His-Leu substrate, fluorescence). The format is biochemical. How it is done:
The test for ACE-inhibiting activity was conducted by an ordinary method.
The ACE-inhibiting activity of the sample solution was expressed by the following formula: […]
where S: the fluorescent intensity of test solution,
C: the fluorescent intensity of comparative solution wherein water was used in place of the sample,
SB : the fluorescent intensity of blank for S (the blank contained water in place of the enzyme), and
CB : the fluorescent intensity of blank for C (the blank contained water in place of the enzyme).

The test system of assay [4] is Salmonella typhimurium TA 98 or TA 100. The experiment in a line: Antimutagenic activity, modified Ames method with S 9-mix. The following applies: amount per plate. Type of assay: cell-based. The method, then: In this Example, antimutagenic activity was measured by modifying the ames method (Mutation Research, vol. 31, p. 347, 1975).
An antimutagenic compound [benzo(a)pyrene or Trp-P-2] solution was mixed with a phosphate buffer solution, a sample solution, S 9-mix and a salmonella (a solution obtained by culturing Salmonella typhimurium TA 98 or TA 100 overnight). The mixture was cultured at 37° C. for 2 days. The number of the resulting colonies was counted. The amount of each polyphenol used was shown based on a scale expressed in geometric progression, between 1 and 300 μg/plate. Antimutagenic activity was calculated using the following formula: […]
antimutagenic activity (%)={(C-B)-(S-B)}).div.(C-B)×100 wherein S: number of colonies of test solution
C: number of colonies of control wherein water is used in place of the sample, and B: number of colonies of blank wherein water is used in place of the sample and the mutagenic com pound.

Another assay has as its target T3, hyaluronidase (Bos taurus, UniProt Q2YDK3).
T3 construct: purchased
T3 sequence (Q2YDK3 36-553): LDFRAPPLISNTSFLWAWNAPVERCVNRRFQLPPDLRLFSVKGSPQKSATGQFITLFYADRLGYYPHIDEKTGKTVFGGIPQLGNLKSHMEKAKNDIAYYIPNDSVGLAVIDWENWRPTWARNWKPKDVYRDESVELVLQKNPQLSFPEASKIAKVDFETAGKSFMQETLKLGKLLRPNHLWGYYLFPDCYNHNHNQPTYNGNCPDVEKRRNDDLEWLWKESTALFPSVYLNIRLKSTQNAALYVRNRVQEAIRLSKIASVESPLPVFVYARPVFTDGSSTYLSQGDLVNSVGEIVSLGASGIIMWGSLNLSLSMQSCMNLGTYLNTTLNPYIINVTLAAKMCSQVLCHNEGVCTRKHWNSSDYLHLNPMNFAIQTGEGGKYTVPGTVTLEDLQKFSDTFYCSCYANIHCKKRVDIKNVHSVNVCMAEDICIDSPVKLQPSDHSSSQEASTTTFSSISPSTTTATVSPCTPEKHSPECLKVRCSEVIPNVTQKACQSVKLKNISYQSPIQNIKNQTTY
Kind of assay: Test for hyaluronidase-inhibiting activity (commercial hyaluronidase activated with compound 48/80). The format is biochemical. The note with it: FIG. 16.

T2 sequence (P12821 30-1306, species assumed): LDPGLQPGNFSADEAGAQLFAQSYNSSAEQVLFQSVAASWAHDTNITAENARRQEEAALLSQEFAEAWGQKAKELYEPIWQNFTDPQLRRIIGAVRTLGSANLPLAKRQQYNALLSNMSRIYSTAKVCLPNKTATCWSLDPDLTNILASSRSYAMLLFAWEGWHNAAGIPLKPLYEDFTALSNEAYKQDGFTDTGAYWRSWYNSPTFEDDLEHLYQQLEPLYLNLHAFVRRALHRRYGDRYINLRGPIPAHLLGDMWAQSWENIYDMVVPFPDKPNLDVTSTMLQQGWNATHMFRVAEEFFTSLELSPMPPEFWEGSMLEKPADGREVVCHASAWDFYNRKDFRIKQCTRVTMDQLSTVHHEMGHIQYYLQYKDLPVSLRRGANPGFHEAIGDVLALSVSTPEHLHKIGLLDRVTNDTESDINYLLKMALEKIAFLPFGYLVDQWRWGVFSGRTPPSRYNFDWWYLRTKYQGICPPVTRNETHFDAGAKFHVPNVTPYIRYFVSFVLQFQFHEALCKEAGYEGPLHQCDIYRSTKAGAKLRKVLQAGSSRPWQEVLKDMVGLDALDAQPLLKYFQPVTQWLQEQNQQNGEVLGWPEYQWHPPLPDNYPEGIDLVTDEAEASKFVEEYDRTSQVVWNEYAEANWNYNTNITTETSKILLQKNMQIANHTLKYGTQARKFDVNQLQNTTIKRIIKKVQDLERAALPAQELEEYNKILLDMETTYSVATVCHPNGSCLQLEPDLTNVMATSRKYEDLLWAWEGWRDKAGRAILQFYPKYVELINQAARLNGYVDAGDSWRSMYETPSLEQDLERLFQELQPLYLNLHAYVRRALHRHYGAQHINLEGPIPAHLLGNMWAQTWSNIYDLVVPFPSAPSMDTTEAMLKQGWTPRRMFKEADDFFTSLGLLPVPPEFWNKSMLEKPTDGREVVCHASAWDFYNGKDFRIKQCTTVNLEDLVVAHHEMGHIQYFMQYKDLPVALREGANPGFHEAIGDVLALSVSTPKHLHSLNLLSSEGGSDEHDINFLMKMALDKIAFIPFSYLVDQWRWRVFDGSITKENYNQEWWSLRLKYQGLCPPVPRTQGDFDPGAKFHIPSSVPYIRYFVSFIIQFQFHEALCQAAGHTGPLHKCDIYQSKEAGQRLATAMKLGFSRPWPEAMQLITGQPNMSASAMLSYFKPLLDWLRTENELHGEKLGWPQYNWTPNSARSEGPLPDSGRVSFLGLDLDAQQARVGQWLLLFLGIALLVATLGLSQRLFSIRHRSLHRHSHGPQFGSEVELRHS
T1 sequence (P27470 39-1592): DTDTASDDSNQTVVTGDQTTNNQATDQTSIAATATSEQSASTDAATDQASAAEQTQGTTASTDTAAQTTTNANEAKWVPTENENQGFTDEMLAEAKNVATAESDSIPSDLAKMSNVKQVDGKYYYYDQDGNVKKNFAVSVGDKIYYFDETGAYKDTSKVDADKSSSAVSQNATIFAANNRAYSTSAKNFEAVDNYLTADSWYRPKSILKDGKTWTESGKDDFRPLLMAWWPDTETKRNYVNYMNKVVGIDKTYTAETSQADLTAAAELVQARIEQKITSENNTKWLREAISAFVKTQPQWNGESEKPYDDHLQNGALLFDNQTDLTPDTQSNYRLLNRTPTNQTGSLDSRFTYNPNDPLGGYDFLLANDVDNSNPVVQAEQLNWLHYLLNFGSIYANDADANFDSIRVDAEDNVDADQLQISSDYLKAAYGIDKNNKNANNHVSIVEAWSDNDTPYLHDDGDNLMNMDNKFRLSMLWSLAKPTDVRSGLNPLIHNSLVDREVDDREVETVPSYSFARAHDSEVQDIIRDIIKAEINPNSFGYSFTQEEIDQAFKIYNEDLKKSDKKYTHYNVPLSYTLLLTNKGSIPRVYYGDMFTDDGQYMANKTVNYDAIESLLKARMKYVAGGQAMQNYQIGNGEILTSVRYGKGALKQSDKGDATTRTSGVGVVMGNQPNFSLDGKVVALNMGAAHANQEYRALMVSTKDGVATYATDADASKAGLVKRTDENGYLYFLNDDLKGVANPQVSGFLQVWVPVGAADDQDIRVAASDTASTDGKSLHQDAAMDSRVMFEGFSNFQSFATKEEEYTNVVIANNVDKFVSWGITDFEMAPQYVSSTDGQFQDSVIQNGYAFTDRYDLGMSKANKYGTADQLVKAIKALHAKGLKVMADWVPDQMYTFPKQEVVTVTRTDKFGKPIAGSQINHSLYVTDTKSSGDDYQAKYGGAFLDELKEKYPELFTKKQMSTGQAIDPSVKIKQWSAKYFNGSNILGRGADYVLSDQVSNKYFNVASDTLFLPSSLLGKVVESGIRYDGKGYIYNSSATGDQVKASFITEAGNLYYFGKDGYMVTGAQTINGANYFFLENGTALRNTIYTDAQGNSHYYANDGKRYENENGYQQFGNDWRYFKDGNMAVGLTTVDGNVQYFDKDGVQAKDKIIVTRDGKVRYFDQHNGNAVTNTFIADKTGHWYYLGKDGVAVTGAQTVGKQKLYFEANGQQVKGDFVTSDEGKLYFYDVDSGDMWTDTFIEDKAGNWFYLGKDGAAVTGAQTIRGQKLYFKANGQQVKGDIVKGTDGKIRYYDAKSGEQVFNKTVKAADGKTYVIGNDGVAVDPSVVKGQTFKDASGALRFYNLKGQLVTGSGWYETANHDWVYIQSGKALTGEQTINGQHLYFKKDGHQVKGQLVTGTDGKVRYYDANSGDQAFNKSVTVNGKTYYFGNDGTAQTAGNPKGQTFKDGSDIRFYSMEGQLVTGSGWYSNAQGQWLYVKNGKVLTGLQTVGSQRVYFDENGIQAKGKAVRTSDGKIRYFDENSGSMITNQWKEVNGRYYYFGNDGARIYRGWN
Protocol for hyaluronidase: That is, a sample solution was added to a commercial hyaluronidase solution, and preincubation was conducted. […] Then, a hyaluronic acid solution was added as a substrate, and a reaction was allowed to take place.
The N-acetylglucosamine produced by the above reaction was subjected to the Elson-Morgan's procedure to develop a color. […] Hyaluronidase-inhibiting activity (%) was calculated using the following formula:
(%)={(C-CB)-(S-SB)}.div.(C-CB)×100
wherein S: absorbance of test solution,
C: absorbance of control wherein a buffer solution is used in place of the sample,
SB : absorbance of blank for S (the blank contained no enzyme), and
CB : absorbance of blank for C (the blank contained no sample and no enzyme).

Turning to `Oc1cc(O)c2c(c1)O[C@H](c1ccc(O)c(O)c1)[C@@H](O)C2` [(+)-catechin], the “antioxidative activity (amount of peroxylipid formed, absorbance at 500 nm)” value (from here on “antioxidative activity”) in assay [1] is “antioxidative activities equivalent to those of BHA and BHT”.
For the molecule `Oc1cc(O)c2c(c1)O[C@H](c1ccc(O)c(O)c1)[C@H](O)C2` [(-)-epicatechin], the “GTase-inhibiting activity (in words)” value in assay [2] is “very low GTase-inhibiting activity”. Also, the “antioxidative activity” value in assay [1] was “antioxidative activities equivalent to those of BHA and BHT”.
`O=C(O[C@@H]1Cc2c(O)cc(O)cc2O[C@@H]1c1ccc(O)c(O)c1)c1cc(O)c(O)c(O)c1` [ECg, (-)-epicatechin gallate]: the IC50 is approximately 452 µM in assay [2] and 2000 µM in assay [3] (pure polyphenol compounds, FIG. 9, read-out: IC50 to ACE).
As to `O=C(O[C@@H]1Cc2c(O)cc(O)cc2O[C@@H]1c1cc(O)c(O)c(O)c1)c1cc(O)c(O)c(O)c1` [EGCg, (-)-epigallocatechin gallate], the IC50 in assay [3] worked out at 300 µM. In addition, the “amount showing 50% antimutagenic activity to Trp-P-2” value in assay [4] (1 μg of Trp-P-2, FIG. 13) is recorded as “about 51 μg”. Also, the “amount showing 50% antimutagenic activity to benzo[a]pyrene” value in assay [4] (5 μg of benzo[a]pyrene, FIG. 14) is given as “about 56 μg”.
On to `NCCCC(=O)O` [GABA, γ-aminobutyric acid], for which the “ACE-inhibiting activity (in words)” value in assay [3] is listed as “no ACE-inhibiting activity”.
For the molecule `O=C(O)/C=C/c1ccc(O)c(O)c1` [caffeic acid], the “antioxidative activity” value in assay [1] was “antioxidative activities equivalent to those of BHA and BHT”.
Turning to `O=C(/C=C/c1ccc(O)c(O)c1)O[C@@H]1C[C@](O)(C(=O)O)C[C@@H](O)[C@H]1O` [chlorogenic acid], the “GTase-inhibiting activity (in words)” value in assay [2] was “very low GTase-inhibiting activity”.
`O=C(O)/C=C/c1ccc(O)cc1` [p-coumaric acid]: the “antioxidative activity” value in assay [1] is reported as “no antioxidative activity”.
Still for that read-out and setting: next, `O=C(CCc1ccc(O)cc1)c1c(O)cc(O)cc1O` [phloretin]: “no antioxidative activity”.
Take `O=C(CCc1ccc(O)cc1)c1c(O)cc(O)cc1O[C@@H]1O[C@H](CO)[C@@H](O)[C@H](O)[C@H]1O` [phloridzin]: the “GTase-inhibiting activity (in words)” value in assay [2] is “very low GTase-inhibiting activity”. Moreover, in assay [1], the “antioxidative activity” value is “no antioxidative activity”.
With `O=c1c(O)c(-c2ccc(O)c(O)c2)oc2cc(O)cc(O)c12` [quercetin], in assay [1], the “antioxidative activity” value is “antioxidative activities equivalent to those of BHA and BHT”.
In the case of `C[C@@H]1O[C@@H](OC[C@H]2O[C@@H](Oc3c(-c4ccc(O)c(O)c4)oc4cc(O)cc(O)c4c3=O)[C@H](O)[C@@H](O)[C@@H]2O)[C@H](O)[C@H](O)[C@H]1O` [rutin], the “antioxidative activity” value in assay [1] was “antioxidative activities equivalent to those of BHA and BHT”.
Take `O=C(O)c1cc(=O)c2c(OCC(O)COc3cccc4oc(C(=O)O)cc(=O)c34)cccc2o1` [sodium cromoglicate]: the IC50 on hyaluronidase is approximately 109 µM.
